Assay results: patent publication US20080280859A1, “GEMINI VITAMIN D3 COMPOUNDS AND METHODS OF USE THEREOF” (BioXell S.p.A., priority 2005, published 2008)
Marks after values point to notes of the source that are not given here.

Key:
[1] = test system: ILT3 expression on monocyte-derived immature dendritic cells; assay: ILT3 upregulation on monocyte-derived immature dendritic cells (flow cytometry); type: cell-based, human; conditions: 24 hours; for upregulation of ILT3 expression: graded doses, up to 1000 nM
Procedure: Immature dendritic cells (DC) were prepared as described in Romani, N. et al., (1996) J. Immunol. Meth. 196:137). Briefly, peripheral blood mononuclear cells (PBMCs) were obtained from a buffy coat by ficoll-hypaque gradient (Pharmacia Biotec AB, Upsala, Sweden) and monocytes isolated from PBMCs by negative selected with a monocyte isolation kit (Milteny, Biotech, Bergish Gladblach, Germany). After isolation, monocytes were cultured for 6 to 7 days at a cell density of 1-2×106 in RPMI medium supplemented with 5% FetalClone I (Hyclone Laboratories, Logan, Utah) 2 mM L-glutamine, […], 1 mM sodium pyruvate and 1% nonessential amino acids, containing 800 U/ml GM-CSF (Mielogen 300, Schering-Plough) and 10 ng/ml interleukin (IL)-4 (PharMingen, San Diego, Calif.). Every other day, approximately 20% of the medium was removed and replaced by the same volume of fresh medium containing GM-CSF and IL-4.
Immunoglobulin-like transcript-3 upregulation was evaluated by flow cytometric analysis. Briefly, cells were preincubated with […] human IgG (Sigma Chemical, St. Louis, Mo.) and subsequently stained with anti-human ILT3 antibody (see, e.g., Cella, M. et al. (1997) J. Exp. Med. 185:1743) followed by anti-mouse IgG-phycoerithryn (Jackson). Cells were then analyzed with a FACScanR flow cytometer using a Cell QuestR software program (both from Beckton Dickinson, Mountain View, Calif.).

[2] = test system: RT112; assay: Proliferation assay, bladder cancer cell line RT112; type: cell-based; conditions: Homo sapiens, RT-112; 72 h culture, CyQuant proliferation assay
Procedure: (§1) Bladder cancer cell lines (T24, RT112, HT1376 and RT4 are human bladder cancer cell lines; NHEK are normal human keratinocytes) were obtained from the European Collection of Cell Cultures (Salisbury, UK). […] After a further 72 h of culture, cell proliferation was measured using a fluorescence-based proliferation assay kit. (CyQuant Cell Proliferation Assay Kit, Molecular Probes, Eugene, Oreg., USA). The IC50 was calculated from the regression curve of the titration data.

[3] = test system: HT 1376; assay: Proliferation assay, bladder cancer cell line HT 1376; type: cell-based; conditions: Homo sapiens, 72 h culture, CyQuant proliferation assay
Procedure: as §1

[4] = test system: NHEK; assay: Proliferation assay, normal human keratinocytes NHEK; type: cell-based; conditions: 72 h culture, CyQuant proliferation assay
Procedure: as §1

[5] = test system: HL-60 cells; assay: HL-60 (CD14) cell differentiation; type: cell-based; conditions: Homo sapiens, HL-60 cell differentiation, read-out: HL-60(CD14) ED50
[6] = test system: IFN-γ production; assay: IFN-γ production in the mixed leukocyte response (MLR); type: cell-based; conditions: MLR of allogeneic PBMC, 5 days, ELISA; for IC50: 120 h, read-out: INF-γ IC50
Procedure: Immature dendritic cells (DC) were prepared as described in Romani, N. et al., J. Immunol. Meth.

[7] = test system: RT4; assay: Proliferation assay, bladder cancer cell line RT4; type: cell-based; conditions: Homo sapiens, RT-4; 72 h culture, CyQuant proliferation assay
Procedure: as §1

[8] = in vivo; conditions: female, C57BL/6, mouse, po
[9] = target: T1, VDR (Homo sapiens, UniProt P11473); assay: VDR binding; conditions: 1,25(OH)2D3 100.0
T1 sequence (P11473 1-427): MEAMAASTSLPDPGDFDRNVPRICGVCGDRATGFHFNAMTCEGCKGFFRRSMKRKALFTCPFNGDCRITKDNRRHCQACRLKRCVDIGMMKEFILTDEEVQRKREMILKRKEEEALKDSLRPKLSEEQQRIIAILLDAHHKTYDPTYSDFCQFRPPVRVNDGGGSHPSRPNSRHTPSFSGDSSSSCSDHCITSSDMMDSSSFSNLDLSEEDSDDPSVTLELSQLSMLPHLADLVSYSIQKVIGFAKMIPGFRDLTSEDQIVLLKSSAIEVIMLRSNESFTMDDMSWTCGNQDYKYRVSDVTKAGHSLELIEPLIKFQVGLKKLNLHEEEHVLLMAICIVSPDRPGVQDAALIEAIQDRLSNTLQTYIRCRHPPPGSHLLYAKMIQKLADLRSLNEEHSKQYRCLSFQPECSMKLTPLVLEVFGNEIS

[10] = test system: renin mRNA in As4.1hVDR cells; assay: Renin suppression assay (renin mRNA, Northern blot); conditions: 10^−10, 10^−9 and 10^−8 M, 24 hours
[11] = test system: ECV; assay: Proliferation assay, bladder cancer cell line ECV; type: cell-based; conditions: Homo sapiens; 72 h culture, CyQuant proliferation assay

Row | SMILES | IC50 [2] | IC50 [6] | IC50 [7] | MTD [8] | renin suppression activity compared with 1,25(OH)2D3 [10] | other results
1 | C=C1/C(=C\C=C2/CCC[C@]3(C)[C@@H]([C@@H](CCCC(C)(C)O)CC[C@@H](O)C(C)(C)O)CC[C@@H]23)C[C@@H](O)C[C@@H]1O (stereo in doubt) [Compound 2, 1,25-Dihydroxy-21-(2R,3-dihydroxy-3-methyl-butyl)-20S-cholecalciferol] | – | – | – | – | – | ILT3 mean fluorescence intensity ([1]; 1 nM of compound): 260; upregulation of ILT3 expression ([1]; listed as 1,24R,25-trihydroxy-20R-21-(3-hydroxy-3-methylbutyl)): very favourable upregulation; upregulation of ILT3 expression ([1]; listed as ix): greatest upregulation of ILT3
2 | C=C1/C(=C\C=C2/CCC[C@]3(C)[C@@H]([C@H](C)CCCC(C)(C)O)CC[C@@H]23)C[C@@H](O)C[C@@H]1O [1,25(OH)2D3, reference compound] | 19 µM | 0.029 nM | 45 µM | – | – | IC50 [3]: 50 µM; IC50 [4]: 4.9 µM; EC50 [5]: 0.00137 µM; down regulation of INF-γ (class symbol) [6]: * (good down regulation of INF-γ (e.g., less than 100 IC50 pM))
3 | C=C1/C(=C\C=C2/CCC[C@@]3(C)C2CC[C@@H]3C(CCCC(C)(C)O)CCCC(C)(C)O)CC(O)C[C@@H]1O (stereo partly shown) [Compound 1, 1,25-Dihydroxy-21-(3-hydroxy-3-methyl-butyl)-cholecalciferol, reference compound] | – | 0.022 nM | – | 0.003 mg/kg | comparable to that of 1,25(OH)2D3 | EC50 [5]: 0.00034 µM; down regulation of INF-γ (class symbol) [6]: * (good down regulation of INF-γ (e.g., less than 100 IC50 pM)); VDR Binding [9]: 38.0**
4 | C=C1/C(=C\C=C2/CCC[C@]3(C)[C@@H]([C@@H](CCCC(C)(C)O)CC[C@@H](O)C(C)(C)O)CC[C@@H]23)C[C@@H](O)C[C@@H]1O [Compound 2, 1,25-Dihydroxy-21-(2R,3-dihydroxy-3-methyl-butyl)-20S-cholecalciferol] | 1 µM | 0.549 nM | 62 µM | 0.03 mg/kg | more potent in suppressing renin expression than 1,25(OH)2D3 | IC50 [4]: 37.2 µM; EC50 [5]: 0.0093 µM; VDR Binding [9]: 0.95**; IC50 [11]: 69.4 µM
5 | C=C1/C(=C\C=C2/CCC[C@]3(C)[C@@H]([C@H](CCCC(C)(C)O)CC[C@@H](O)C(C)(C)O)CC[C@@H]23)C[C@@H](O)C[C@@H]1O [Compound 3, 1,25-Dihydroxy-21-(2R,3-dihydroxy-3-methyl-butyl)-20R-cholecalciferol] | 25 µM | 0.066 nM | 71 µM | 0.03 mg/kg | comparable to that of 1,25(OH)2D3 | IC50 [3]: 98 µM; IC50 [4]: 46.5 µM; EC50 [5]: 0.00217 µM; down regulation of INF-γ (class symbol) [6]: * (good down regulation of INF-γ (e.g., less than 100 IC50 pM)); VDR Binding [9]: 42.10*; IC50 [11]: 57.9 µM
6 | C=C1/C(=C\C=C2/CCC[C@@]3(C)C2CC[C@@H]3[C@H](CC#CC(O)(C(F)(F)F)C(F)(F)F)CCCC(C)(C)O)CC(O)C[C@@H]1O (stereo partly drawn) [Compound 4, 1,25-Dihydroxy-21-(3-hydroxy-3-trifluoromethyl-4-trifluoro-butynyl)-20S-cholecalciferol] | – | – | – | – | more potent in suppressing renin expression than 1,25(OH)2D3 | –
7 | CC(C)(O)CCCC(CC#CC(O)(C(F)(F)F)C(F)(F)F)[C@H]1CCC2/C(=C/C=C3/CC(O)C[C@H](O)C3)CCC[C@@]21C (stereo partly drawn) [Compound 5, 1,25-Dihydroxy-21-(3-hydroxy-3-trifluoromethyl-4-trifluoro-butynyl)-20R-19-nor-cholecalciferol] | – | – | – | – | comparable to that of 1,25(OH)2D3 | –
8 | CC(C)(O)CCC[C@@H](CC#CC(O)(C(F)(F)F)C(F)(F)F)[C@H]1CCC2/C(=C/C=C3/CC(O)C[C@H](O)C3)CCC[C@@]21C (stereo partly drawn) [Compound 6, 1,25-Dihydroxy-21-(3-hydroxy-3-trifluoromethyl-4-trifluoro-butynyl)-20S-19-nor-cholecalciferol] | – | – | – | – | more potent in suppressing renin expression than 1,25(OH)2D3 | –
9 | C=C1/C(=C\C=C2/CCC[C@@]3(C)C2CC[C@@H]3C(CC#CC(O)(C(F)(F)F)C(F)(F)F)CCCC(C)(C)O)CC(O)C[C@@H]1O (stereo partly drawn) [Compound 11, 1,25-Dihydroxy-21-(3-hydroxy-3-trifluoromethyl-4-trifluorobutynyl)-20R-cholecalciferol] | – | – | – | – | comparable to that of 1,25(OH)2D3 | –
10 | CC(C)(O)CCC[C@@H](CCC(=O)C(C)(C)O)[C@H]1CC[C@H]2/C(=C/C=C3C[C@@H](O)C[C@H](O)C3)CCC[C@]12C [Compound 12, 1,25-Dihydroxy-20S-21-(3-hydroxy-3-methyl-butyl)-24-keto-19-nor-cholecalciferol] | > 30 µM | 2.97 nM | 2.6 µM | 0.03 mg/kg | – | –
11 | C=C1/C(=C\C=C2/CCC[C@]3(C)[C@@H]([C@@H](CCCC(C)(C)O)CCC(=O)C(C)(C)O)CC[C@@H]23)C[C@@H](O)C[C@@H]1O [Compound 14, 1,25-Dihydroxy-20S-21-(3-hydroxy-3-methyl-butyl)-24-keto-cholecalciferol] | 25.5 µM | 0.35 nM | 8.3 µM | 0.03 mg/kg | – | –
12 | CC(C)(O)CCC[C@@H](CC[C@@H](O)C(C)(C)O)[C@H]1CC[C@H]2/C(=C/C=C3C[C@@H](O)C[C@H](O)C3)CCC[C@]12C [Compound 38, 1,25-Dihydroxy-21-(2R,3-dihydroxy-3-methyl-butyl)-20S-19-nor-cholecalciferol] | 44 µM | 3.86 nM | 72 µM | > 0.3 mg/kg | – | IC50 [3]: > 100 µM; IC50 [4]: 57 µM; IC50 [11]: 99.2 µM
13 | [2H]C([2H])([2H])C(O)(CCC[C@@H](CC#CC(O)(C(F)(F)F)C(F)(F)F)C1CCC2/C(=C/C=C3C[C@@H](O)C[C@H](O)C3)CCC[C@@]21C)C([2H])([2H])[2H] (stereo partly drawn) [Compound 39, 1,25-Dihydroxy-21(3-hydroxy-3-trifluoromethyl-4-trifluoro-butynyl)-26,27-hexadeutero-19-nor-20S-cholecalciferol] | 7 µM | 0.062 nM | 2.2 µM | 0.0003 mg/kg | – | –
14 | [2H]C([2H])([2H])C(O)(CCC[C@@H](CC#CC(O)(C(F)(F)F)C(F)(F)F)C1CCC2/C(=C/C=C3/C[C@@H](O)C[C@H](O)C3=C)CCC[C@@]21C)C([2H])([2H])[2H] (stereo partly drawn) [Compound 40, 1,25-Dihydroxy-21-(3-hydroxy-3-trifluoromethyl-4-trifluoro-butynyl)-26,27-hexadeutero-20S-cholecalciferol] | 6.4 µM | 0.062 nM | 2.2 µM | 0.0001 mg/kg | – | –
15 | COc1c(C)c2c(c(O)c1C/C=C(\C)CCC(=O)OCCN1CCOCC1)C(=O)OC2 [Mycophenolate Mofetil, reference compound] | – | – | – | – | – | upregulation of ILT3 expression [1]: fail to upregulate ILT3 expression at any concentration tested
